Assay results: US20100298141A1, “SUBSTITUTED PYRIDINE N-OXIDE HERBICIDES” (E. I. DU PONT DE NEMOURS AND COMPANY, priority 2007, published 2010)

Experiments:
cocklebur = test: Test C pre-/postemergence test; assay type: in vivo, Xanthium strumarium; conditions: for Plant response rating, Cocklebur: 31 g ai/ha, scale 0 to 100 (0 no effect, 100 complete control)
Procedure, shortened: (§1)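 Test chemicals were formulated with surfactant in a non-phytotoxic solvent and sprayed both on freshly planted seeds (preemergence) and on 1- to 4-leaf plants of 2–18 cm (postemergence). Flooded-paddy pots received compound directly into 3 cm of standing water, maintained for the test.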

barnyardgrass = test: Test A pre-/postemergence greenhouse test; assay type: in vivo, Echinochloa crus-galli; conditions: for Plant response rating, Barnyardgrass: 0 to 100 scale where 0 is no effect and 100 is complete control; for Barnyardgrass plant response rating: 0 to 100 scale
Procedure, shortened: (§2)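 Visual injury ratings, made relative to untreated controls roughly ten days after treatment, cover both preemergence and postemergence application. Compounds in a surfactant-containing non-phytotoxic solvent were sprayed onto the soil surface after sowing and, simultaneously, onto young plants at the one- to two-leaf stage.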

johnsongrass = test: Test C pre-/postemergence test; assay type: in vivo, Sorghum halepense; conditions: for Plant response rating, Johnsongrass: 31 g ai/ha, scale 0 to 100 (0 no effect, 100 complete control)
Procedure, shortened: as §1

common ragweed = test: Test C pre-/postemergence test; assay type: in vivo, Ambrosia elation; conditions: for Plant response rating, Ragweed: 31 g ai/ha, scale 0 to 100 (0 no effect, 100 complete control)
Procedure, shortened: as §1

downy brome = test: Test C pre-/postemergence test; assay type: in vivo, Bromus tectorum; conditions: for Plant response rating, Bromegrass, Downy: 31 g ai/ha, scale 0 to 100 (0 no effect, 100 complete control)
Procedure, shortened: as §1

green foxtail = test: Test C pre-/postemergence test; assay type: in vivo, Setaria viridis; conditions: for Plant response rating, Foxtail, Green: 31 g ai/ha, scale 0 to 100 (0 no effect, 100 complete control)
Procedure, shortened: as §1

Surinam grass = test: Test C pre-/postemergence test; assay type: in vivo, Brachiaria decumbens; conditions: for Plant response rating, Surinam Grass: 31 g ai/ha, scale 0 to 100 (0 no effect, 100 complete control)
Procedure, shortened: as §1

duck salad = test: Test C flooded paddy test; assay type: in vivo, Heteranthera limosa; conditions: Flood
Procedure, shortened: (§3)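 Flooded 3 cm over soil; compound into paddy water; depth kept constant. Greenhouse 13–15 d.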

crabgrass = test: Test C pre-/postemergence test; assay type: in vivo, Digitaria sanguinalis; conditions: for Plant response rating, Crabgrass, Large: 31 g ai/ha, scale 0 to 100 (0 no effect, 100 complete control)
Procedure, shortened: as §1

lambsquarters = test: Test C pre-/postemergence test; assay type: in vivo, Chenopodium album; conditions: for Plant response rating, Lambsquarters: 31 g ai/ha, scale 0 to 100 (0 no effect, 100 complete control)
Procedure, shortened: as §1

wild oat = test: Test C pre-/postemergence test; assay type: in vivo, Avena fatua; conditions: for Plant response rating, Oat, Wild: 31 g ai/ha, scale 0 to 100 (0 no effect, 100 complete control)
Procedure, shortened: as §1

kochia = test: Test C pre-/postemergence test; assay type: in vivo, Kochia scoparia; conditions: for Plant response rating, Kochia: 31 g ai/ha, scale 0 to 100 (0 no effect, 100 complete control)
Procedure, shortened: as §1

eastern black nightshade = test: Test C pre-/postemergence test; assay type: in vivo, Solanum ptycanthum; conditions: for Plant response rating, Nightshade: 31 g ai/ha, scale 0 to 100 (0 no effect, 100 complete control)
Procedure, shortened: as §1

giant foxtail = test: Test C pre-/postemergence test; assay type: in vivo, Setaria faberii; conditions: for Plant response rating, Foxtail, Giant: 31 g ai/ha, scale 0 to 100 (0 no effect, 100 complete control)
Procedure, shortened: as §1

redroot pigweed = test: Test A pre-/postemergence greenhouse test; assay type: in vivo, Amaranthus retroflexus; conditions: for Plant response rating, Pigweed: 0 to 100 scale where 0 is no effect and 100 is complete control; for Pigweed plant response rating: 0 to 100 scale
Procedure, shortened: as §2

velvetleaf [1] = test: Test A pre-/postemergence greenhouse test; assay type: in vivo, Abutilon theophrasti; conditions: for Plant response rating, Velvetleaf: 0 to 100 scale where 0 is no effect and 100 is complete control; for Velvetleaf plant response rating: 0 to 100 scale
Procedure, shortened: as §2

rice = test: Test C flooded paddy test; assay type: in vivo, Oryza sativa; conditions: Flood
Procedure, shortened: as §3

velvetleaf [2] = test: Test C pre-/postemergence test; assay type: in vivo, Abutilon theophrasti; conditions: for Plant response rating, Velvetleaf: 31 g ai/ha, scale 0 to 100 (0 no effect, 100 complete control)
Procedure, shortened: as §1

[3] = 62 g ai/ha, Preemergence, scale 0 to 100
[4] = 125 g ai/ha, preemergence, scale 0 (no effect) to 100 (complete control)
[5] = preemergence, 250 g ai/ha, scale 0 (no effect) to 100 (complete control)
[6] = Postemergence, 500 g ai/ha, 0 is no effect, 100 is complete control
[7] = Preemergence, 125 g ai/ha, 0 no effect, 100 complete control
[8] = Preemergence, 500 g ai/ha, 0 no effect, 100 complete control
[9] = 62 g ai/ha, scale 0 to 100 (0 no effect, 100 complete control)
[10] = 250 g ai/ha, scale 0 to 100, 0 no effect, 100 complete control, 13 to 15 days

CCc1cc[n+]([O-])c([S+]([O-])Cc2c(C(F)(F)F)nn(C)c2OC(F)F)c1 (stereo not shown) [Compound 101]
70: Plant response rating, Johnsongrass (johnsongrass; Preemergence) | Plant response rating, Foxtail, Giant (giant foxtail; Preemergence) | Plant response rating, Pigweed (redroot pigweed; Postemergence, 125 g ai/ha) | Plant response rating, Velvetleaf (velvetleaf [1]; Postemergence, 125 g ai/ha)
80: Plant response rating, Barnyardgrass (barnyardgrass; Postemergence, 125 g ai/ha) | Surinam Grass plant response rating (Surinam grass; [3]) | Plant response rating, Ducksalad (duck salad; [10]) | Plant response rating, Lambsquarters (lambsquarters; Preemergence) | Nightshade plant response rating (eastern black nightshade; [3]) | Foxtail, Giant plant response rating (giant foxtail; [3]) | Velvetleaf plant response rating (velvetleaf [1]; [7])
50: Plant response rating, Crabgrass, Large (crabgrass; Preemergence) | Plant response rating, Oat, Wild (wild oat; Preemergence)
60: Plant response rating, Surinam Grass (Surinam grass; Preemergence)
0: Cocklebur plant response rating (cocklebur; [3]) | Plant response rating, Cocklebur (cocklebur; Preemergence) | Plant response rating, Ragweed (common ragweed; Preemergence) | Plant response rating, Ducksalad (duck salad; [9]) | Plant response rating, Kochia (kochia; Preemergence) | Plant response rating, Rice (rice; [9]) | Plant response rating, Velvetleaf (velvetleaf [2]; Preemergence)
90: Barnyardgrass plant response rating (barnyardgrass; [6]) | Barnyardgrass plant response rating (barnyardgrass; [7]) | Bromegrass, Downy plant response rating (downy brome; [4]) | Oat, Wild plant response rating (wild oat; [3]) | Oat, Wild plant response rating (wild oat; [4]) | Pigweed plant response rating (redroot pigweed; [6]) | Velvetleaf plant response rating (velvetleaf [1]; [6])
75: Plant response rating, Rice (rice; [10])
98: Foxtail, Green plant response rating (green foxtail; [4]) | Surinam Grass plant response rating (Surinam grass; [5]) | Crabgrass, Large plant response rating (crabgrass; [5]) | Oat, Wild plant response rating (wild oat; [5]) | Foxtail, Giant plant response rating (giant foxtail; [5])
85: Johnsongrass plant response rating (johnsongrass; [3]) | Plant response rating, Foxtail, Green (green foxtail; Preemergence) | Crabgrass, Large plant response rating (crabgrass; [3]) | Kochia plant response rating (kochia; [4])
100: Barnyardgrass plant response rating (barnyardgrass; [8]) | Johnsongrass plant response rating (johnsongrass; [5]) | Ragweed plant response rating (common ragweed; [4]) | Ragweed plant response rating (common ragweed; [5]) | Bromegrass, Downy plant response rating (downy brome; [5]) | Foxtail, Green plant response rating (green foxtail; [5]) | Lambsquarters plant response rating (lambsquarters; [3]) | Lambsquarters plant response rating (lambsquarters; [4]) | Lambsquarters plant response rating (lambsquarters; [5]) | Kochia plant response rating (kochia; [5]) | Nightshade plant response rating (eastern black nightshade; [5]) | Pigweed plant response rating (redroot pigweed; [7]) | Pigweed plant response rating (redroot pigweed; [8]) | Velvetleaf plant response rating (velvetleaf [1]; [8])
95: Johnsongrass plant response rating (johnsongrass; [4]) | Foxtail, Green plant response rating (green foxtail; [3]) | Surinam Grass plant response rating (Surinam grass; [4]) | Crabgrass, Large plant response rating (crabgrass; [4]) | Nightshade plant response rating (eastern black nightshade; [4]) | Foxtail, Giant plant response rating (giant foxtail; [4]) | Velvetleaf plant response rating (velvetleaf [2]; [5])
10: Cocklebur plant response rating (cocklebur; [4]) | Ragweed plant response rating (common ragweed; [3]) | Plant response rating, Nightshade (eastern black nightshade; Preemergence)
30: Kochia plant response rating (kochia; [3]) | Velvetleaf plant response rating (velvetleaf [2]; [3])
45: Bromegrass, Downy plant response rating (downy brome; [3])
15: Cocklebur plant response rating (cocklebur; [5])
40: Plant response rating, Bromegrass, Downy (downy brome; Preemergence) | Velvetleaf plant response rating (velvetleaf [2]; [4])

CCc1cc[n+]([O-])c(S(=O)(=O)Cc2c(C(F)(F)F)nn(C)c2OC(F)F)c1 [Compound 102]
95: Ragweed plant response rating (common ragweed; [5]) | Foxtail, Green plant response rating (green foxtail; [3]) | Surinam Grass plant response rating (Surinam grass; [5]) | Crabgrass, Large plant response rating (crabgrass; [3]) | Crabgrass, Large plant response rating (crabgrass; [4]) | Oat, Wild plant response rating (wild oat; [5]) | Nightshade plant response rating (eastern black nightshade; [4]) | Velvetleaf plant response rating (velvetleaf [2]; [5])
75: Plant response rating, Ragweed (common ragweed; Preemergence)
80: Barnyardgrass plant response rating (barnyardgrass; [6]) | Barnyardgrass plant response rating (barnyardgrass; [7]) | Ragweed plant response rating (common ragweed; [3]) | Plant response rating, Ducksalad (duck salad; [10]) | Lambsquarters plant response rating (lambsquarters; [3]) | Velvetleaf plant response rating (velvetleaf [2]; [4])
50: Plant response rating, Bromegrass, Downy (downy brome; Preemergence)
20: Plant response rating, Rice (rice; [10])
65: Plant response rating, Surinam Grass (Surinam grass; Preemergence)
40: Plant response rating, Lambsquarters (lambsquarters; Preemergence)
0: Cocklebur plant response rating (cocklebur; [3]) | Cocklebur plant response rating (cocklebur; [4]) | Plant response rating, Cocklebur (cocklebur; Preemergence) | Cocklebur plant response rating (cocklebur; [5]) | Plant response rating, Ducksalad (duck salad; [9]) | Plant response rating, Rice (rice; [9]) | Plant response rating, Velvetleaf (velvetleaf [2]; Preemergence)
100: Barnyardgrass plant response rating (barnyardgrass; [8]) | Johnsongrass plant response rating (johnsongrass; [3]) | Johnsongrass plant response rating (johnsongrass; [4]) | Johnsongrass plant response rating (johnsongrass; [5]) | Bromegrass, Downy plant response rating (downy brome; [3]) | Bromegrass, Downy plant response rating (downy brome; [4]) | Bromegrass, Downy plant response rating (downy brome; [5]) | Foxtail, Green plant response rating (green foxtail; [5]) | Crabgrass, Large plant response rating (crabgrass; [5]) | Lambsquarters plant response rating (lambsquarters; [4]) | Lambsquarters plant response rating (lambsquarters; [5]) | Kochia plant response rating (kochia; [4]) | Kochia plant response rating (kochia; [5]) | Pigweed plant response rating (redroot pigweed; [6]) | Pigweed plant response rating (redroot pigweed; [7]) | Pigweed plant response rating (redroot pigweed; [8]) | Velvetleaf plant response rating (velvetleaf [1]; [8])
70: Plant response rating, Barnyardgrass (barnyardgrass; Postemergence, 125 g ai/ha) | Plant response rating, Johnsongrass (johnsongrass; Preemergence) | Surinam Grass plant response rating (Surinam grass; [3]) | Surinam Grass plant response rating (Surinam grass; [4]) | Plant response rating, Crabgrass, Large (crabgrass; Preemergence) | Oat, Wild plant response rating (wild oat; [3]) | Kochia plant response rating (kochia; [3]) | Plant response rating, Kochia (kochia; Preemergence) | Foxtail, Giant plant response rating (giant foxtail; [3]) | Plant response rating, Pigweed (redroot pigweed; Postemergence, 125 g ai/ha) | Plant response rating, Velvetleaf (velvetleaf [1]; Postemergence, 125 g ai/ha) | Velvetleaf plant response rating (velvetleaf [1]; [7])
98: Foxtail, Green plant response rating (green foxtail; [4]) | Nightshade plant response rating (eastern black nightshade; [5])
35: Plant response rating, Oat, Wild (wild oat; Preemergence)
85: Ragweed plant response rating (common ragweed; [4]) | Plant response rating, Foxtail, Green (green foxtail; Preemergence) | Plant response rating, Nightshade (eastern black nightshade; Preemergence) | Foxtail, Giant plant response rating (giant foxtail; [4]) | Foxtail, Giant plant response rating (giant foxtail; [5])
90: Oat, Wild plant response rating (wild oat; [4]) | Nightshade plant response rating (eastern black nightshade; [3]) | Velvetleaf plant response rating (velvetleaf [1]; [6])
30: Velvetleaf plant response rating (velvetleaf [2]; [3])
60: Plant response rating, Foxtail, Giant (giant foxtail; Preemergence)
